The target in the test is T1, human CCR10 (Homo sapiens, UniProt P46092).
T1 construct: expressed in transfected cells; host or cells: KJMGER8 cells (Namalwa cell-derived line), beta-estradiol-induced; hCCR10G16 cells
T1 sequence (P46092 1-362): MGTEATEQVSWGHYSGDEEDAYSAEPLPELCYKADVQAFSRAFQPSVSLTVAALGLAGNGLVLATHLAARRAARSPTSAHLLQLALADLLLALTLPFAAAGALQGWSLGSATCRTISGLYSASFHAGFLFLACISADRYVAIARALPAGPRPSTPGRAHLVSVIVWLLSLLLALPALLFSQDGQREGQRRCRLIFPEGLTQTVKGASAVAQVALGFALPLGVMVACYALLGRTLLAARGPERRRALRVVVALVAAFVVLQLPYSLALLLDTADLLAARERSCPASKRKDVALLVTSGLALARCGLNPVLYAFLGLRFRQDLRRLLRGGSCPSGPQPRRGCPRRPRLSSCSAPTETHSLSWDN
Kind of test: CCR10 antagonistic effect: calcium assay of human CCR10 (CTACK-induced increase of intracellular calcium in hCCR10G16 cells). As to conditions: at a concentration of not more than 1000 nmol/L; human CCR10-expressing hCCR10G16 cells, 300 nmol/L CTACK added; read-out: inhibition of increase in the calcium ion concentration. Type of test: cell-based. A digest of the protocol: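 Inhibition of CTACK-evoked calcium flux (max minus min Fluo-3 fluorescence over ~5 min, FDSS) was calculated against control in β-estradiol-induced human CCR10/Gα16 KJMGER8 cells, after 30 min compound preincubation at 37 °C; CTACK added from a 300 nmol/L solution.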

In the case of `Cc1cc(F)ccc1Nc1c(C(=O)N2CCC(c3ccc(F)cc3)CC2)cnc(S(=O)(=O)Nc2ccon2)c1Cl` [Compound 190, 3-chloro-4-(4-fluoro-2-methylphenylamino)-5-[4-(4-fluorophenyl)piperidine-1-carbonyl]-N-(isoxazol-3-yl)pyridine-2-sulfonamide], the inhibition at up to 1 µM is at least 50%.
Then `Cc1cc(F)ccc1Nc1c(C(=O)N2CCC(c3ccc(F)cc3)CC2)cnc(S(=O)(=O)Nc2ccccc2)c1Cl` [Compound 191, 3-chloro-4-(4-fluoro-2-methylphenylamino)-5-[4-(4-fluorophenyl)piperidine-1-carbonyl]-N-phenylpyridine-2-sulfonamide], with at least 50%; and `Cc1cc(F)ccc1Nc1c(C(=O)N2CCC(c3ccc(F)cc3)CC2)cnc(S(=O)(=O)n2ccc3ncccc32)c1Cl` [Compound 192, [6-(1H-pyrrolo[3,2-b]pyridin-1-ylsulfonyl)-5-chloro-4-(4-fluoro-2-methylphenylamino)pyridin-3-yl][4-(4-fluorophenyl)piperidin-1-yl]methanone], with at least 50%; and `CONS(=O)(=O)c1ncc(C(=O)N2CCC(c3ccc(F)cc3)CC2)c(Nc2ccc(F)cc2C)c1Cl` [Compound 193, 3-chloro-4-(4-fluoro-2-methylphenylamino)-5-[4-(4-fluorophenyl)piperidine-1-carbonyl]-N-methoxypyridine-2-sulfonamide], with at least 50%.
Consider `Cc1cc(F)ccc1Nc1c(C(=O)N2CCC(c3ccc(F)cc3)CC2)cnc(S(N)(=O)=NC(=O)c2ccccc2)c1Cl` (stereo not shown) [Compound 194, 3-chloro-4-(4-fluoro-2-methylphenylamino)-5-[4-(4-fluorophenyl)piperidine-1-carbonyl]-N′-benzoylpyridine-2-sulfonimidamide], for which the inhibition at up to 1 µM is at least 50%.
As to `Cc1cc(F)ccc1Nc1c(C(=O)N2CCC(C#N)(c3ccccc3)CC2)cnc(S(N)(=O)=O)c1Cl` [Compound 195, 3-chloro-5-(4-cyano-4-phenylpiperidine-1-carbonyl)-4-(4-fluoro-2-methylphenylamino)pyridine-2-sulfonamide], the inhibition at up to 1 µM is at least 50%.
Then `Cc1cc(Cl)ccc1Nc1c(C(=O)N2CCC(c3ccc(F)cc3)CC2)cnc(S(N)(=O)=O)c1C` [Compound 196, 4-(4-chloro-2-methylphenylamino)-5-[4-(4-fluorophenyl)piperidine-1-carbonyl]-3-methylpyridine-2-sulfonamide], with at least 50%.
Turning to `Cc1c(S(N)(=O)=O)ncc(C(=O)N2CCC(c3ccc(F)cc3)CC2)c1Nc1cccc(Cl)c1` [Compound 197, 4-(3-chlorophenylamino)-5-[4-(4-fluorophenyl)piperidine-1-carbonyl]-3-methylpyridine-2-sulfonamide], the inhibition at up to 1 µM was at least 50%.
Take `Cc1cccc(Nc2c(C(=O)N3CCC(O)(c4ccc(F)cc4)CC3)cnc(S(N)(=O)=O)c2Cl)c1` [Compound 199, 3-chloro-5-[4-(4-fluorophenyl)-4-hydroxypiperidine-1-carbonyl]-4-(m-tolylamino)pyridine-2-sulfonamide]: the inhibition at up to 1 µM is at least 50%.
In the case of `Cc1cc(F)ccc1Nc1c(C(=O)N2CCC(c3ccc(F)cc3)CC2)cnc(S(=N)(N)=O)c1Cl` (stereo not shown) [Compound 200, 3-chloro-4-(4-fluoro-2-methylphenylamino)-5-[4-(4-fluorophenyl)piperidine-1-carbonyl]pyridine-2-sulfonimidamide], the inhibition at up to 1 µM is at least 50%.
As to `COC(=O)C1(c2ccccc2)CCN(C(=O)c2cnc(S(N)(=O)=O)c(Cl)c2Nc2cccc(C)c2)CC1` [Compound 201, methyl 1-[5-chloro-6-sulfamoyl-4-(m-tolylamino)nicotinoyl]-4-phenylpiperidine-4-carboxylate], the inhibition at up to 1 µM is at least 50%.
In the case of `Cc1cccc(Nc2c(C(=O)N3CC=C(c4ccc(F)cc4)CC3)cnc(S(N)(=O)=O)c2Cl)c1` [Compound 202, 3-chloro-5-[4-(4-fluorophenyl)-1,2,3,6-tetrahydropyridine-1-carbonyl]-4-(m-tolylamino)pyridine-2-sulfonamide], the inhibition at up to 1 µM was at least 50%.
Under `Cc1cccc(Nc2c(C(=O)N3CCC(C(N)=O)(c4ccccc4)CC3)cnc(S(N)(=O)=O)c2Cl)c1` [Compound 203, 1-[5-chloro-6-sulfamoyl-4-(m-tolylamino)nicotinoyl]-4-phenylpiperidine-4-carboxamide] stands at least 50%; under `CCS(=O)(=O)c1ncc(C(=O)N2CCC(c3ccc(F)cc3)CC2)c(Nc2ccccc2C)c1Cl` [Compound 204, [5-chloro-6-(ethylsulfonyl)-4-(o-tolylamino)pyridin-3-yl][4-(4-fluorophenyl)piperidin-1-yl]methanone], at least 50%.
With `Cc1ccccc1Nc1c(C(=O)N2CCC(c3ccc(F)cc3)CC2)cnc(S(=O)(=O)c2ccccc2)c1Cl` [Compound 205, [5-chloro-6-(phenylsulfonyl)-4-(o-tolylamino)pyridin-3-yl][4-(4-fluorophenyl)piperidin-1-yl]methanone], the inhibition at up to 1 µM is at least 50%.
Consider `Cc1cccc(Nc2c(C(=O)N3CCN(c4ccccc4Cl)CC3)cnc(S(N)(=O)=O)c2Cl)c1` [Compound 206, 3-chloro-5-[4-(2-chlorophenyl)piperazine-1-carbonyl]-4-(m-tolylamino)pyridine-2-sulfonamide], for which the inhibition at up to 1 µM was at least 50%.
With `Cc1c(S(N)(=O)=O)ncc(C(=O)N2CCC(c3ccc(F)cc3)CC2)c1NC1CCCCC1` [Compound 207, 4-(cyclohexylamino)-5-[4-(4-fluorophenyl)piperidine-1-carbonyl]-3-methylpyridine-2-sulfonamide], the inhibition at up to 1 µM was at least 50%.
With `COC1(c2ccc(F)cc2)CCN(C(=O)c2cnc(S(N)(=O)=O)c(Cl)c2Nc2cccc(C)c2)CC1` [Compound 208, 3-chloro-5-[4-(4-fluorophenyl)-4-methoxypiperidine-1-carbonyl]-4-(m-tolylamino)pyridine-2-sulfonamide], the inhibition at up to 1 µM was at least 50%.
Consider `Cc1cccc(Nc2c(C(=O)N3CCN(c4ccc(F)cc4)C(=O)C3)cnc(S(N)(=O)=O)c2Cl)c1` [Compound 209, 3-chloro-5-[4-(4-fluorophenyl)-3-oxopiperazine-1-carbonyl]-4-(m-tolylamino)pyridine-2-sulfonamide], for which the inhibition at up to 1 µM was at least 50%.
Turning to `Cc1cccc(Sc2c(C(=O)N3CCC(c4ccc(F)cc4)CC3)cnc(S(N)(=O)=O)c2Cl)c1` [Compound 210, 3-chloro-5-[4-(4-fluorophenyl)piperidine-1-carbonyl]-4-(m-tolylthio)pyridine-2-sulfonamide], the inhibition at up to 1 µM was at least 50%.
`NS(=O)(=O)c1ncc(C(=O)N2CCC(c3ccc(F)cc3)CC2)c(NC(=O)c2ccccc2)c1Cl` [Compound 211, N-{3-chloro-5-[4-(4-fluorophenyl)piperidine-1-carbonyl]-2-sulfamoylpyridin-4-yl}benzamide]: the inhibition at up to 1 µM was at least 50%.
On to `NS(=O)(=O)c1ncc(C(=O)N2CCC(c3ccc(F)cc3)CC2)c(Cc2ccccc2)c1Cl` [Compound 212, 4-benzyl-3-chloro-5-[4-(4-fluorophenyl)piperidine-1-carbonyl]pyridine-2-sulfonamide], for which the inhibition at up to 1 µM was at least 50%.
With `Cc1cccc(Nc2c(C(=O)N3CC4CN(c5ccc(F)cc5)CC4C3)cnc(S(N)(=O)=O)c2Cl)c1` (stereo not shown) [Compound 213, 3-chloro-5-[5-(4-fluorophenyl)octahydropyrrolo[3,4-c]pyrrole-2-carbonyl]-4-(m-tolylamino)pyridine-2-sulfonamide], the inhibition at up to 1 µM was at least 50%.
`Cc1c(S(N)(=O)=O)ncc(C(=O)N2CCC(c3ccc(F)cc3)CC2)c1NCC1CCOCC1` [Compound 214, 5-[4-(4-fluorophenyl)piperidine-1-carbonyl]-3-methyl-4-[(tetrahydro-2H-pyran-4-yl)methylamino]pyridine-2-sulfonamide]: the inhibition at up to 1 µM is at least 50%.
As for `Cc1c(S(=O)(=O)Nc2ccon2)ncc(C(=O)N2CCC(c3ccc(F)cc3)CC2)c1NC1CCCCC1` [Compound 215, 4-(cyclohexylamino)-5-[4-(4-fluorophenyl)piperidine-1-carbonyl]-N-(isoxazol-3-yl)-3-methylpyridine-2-sulfonamide], the inhibition at up to 1 µM is at least 50%.
With `CC(=O)C1(c2ccc(F)cc2)CCN(C(=O)c2cnc(S(N)(=O)=O)c(Cl)c2Nc2cccc(C)c2)CC1` [Compound 216, 5-[4-acetyl-4-(4-fluorophenyl)piperidine-1-carbonyl]-3-chloro-4-(m-tolylamino)pyridine-2-sulfonamide], the inhibition at up to 1 µM is at least 50%.
Then `NS(=O)(=O)c1ncc(C(=O)N2CCC(c3ccc(F)cc3)CC2)c(N[C@H]2C[C@@H]3CC[C@H]2O3)c1Cl` [Compound 217, 4-((1R,2S,4S)-7-oxabicyclo[2.2.1]heptan-2-ylamino)-3-chloro-5-[4-(4-fluorophenyl)piperidine-1-carbonyl]pyridine-2-sulfonamide], with at least 50%; and `Cc1cccc(Nc2c(C(=O)N3CCC4(CC3)CNc3ccccc3C4)cnc(S(N)(=O)=O)c2Cl)c1` [Compound 218, 3-chloro-5-[2′,4′-dihydro-1′H-spiro[piperidine-4,3′-quinoline]-1-ylcarbonyl]-4-(m-tolylamino)pyridine-2-sulfonamide], with at least 50%.

These data come from US9701689B2, “Substituted pyridines and pyridazines as CCR10 receptor inhibitors” (KYOWA HAKKO KIRIN CO., LTD., priority 2012, dated 2017).
